From patent publication US20260125382A1, “COMPOUNDS FOR INHIBITING OR DEGRADING CDK2 AND/OR CDK9 AND MEDICINAL USE THEREOF” (KOREA RESEARCH INSTITUTE OF CHEMICAL TECHNOLOGY, priority 2022, published 2026)

Legend:
CDK2 = biological target: T1, CDK2 (Homo sapiens, UniProt P24941); experiment: CDK protein degradation activity (Western blotting), CDK2; type: cell-based; conditions: MDA-MB-231 cells, 16 hours, Western blot
T1 construct: endogenous in cells; host or cells: MDA-MB-231
In short: (§1)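 CDK2 and CDK9 protein levels measured by Western blot with densitometry, using tubulin as loading reference. Cells were MDA-MB-231, exposed for 16 h to 100 nM, 1 μM or 10 μM compound or to DMSO.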

CDK9 = biological target: T2, CDK9 (Homo sapiens, UniProt P50750); experiment: CDK protein degradation activity (Western blotting), CDK9; type: cell-based; conditions: MDA-MB-231 cells, 16 hours, Western blot
T2 construct: endogenous in cells; host or cells: MDA-MB-231
In short: as §1

T2 sequence (P50750 whole entry): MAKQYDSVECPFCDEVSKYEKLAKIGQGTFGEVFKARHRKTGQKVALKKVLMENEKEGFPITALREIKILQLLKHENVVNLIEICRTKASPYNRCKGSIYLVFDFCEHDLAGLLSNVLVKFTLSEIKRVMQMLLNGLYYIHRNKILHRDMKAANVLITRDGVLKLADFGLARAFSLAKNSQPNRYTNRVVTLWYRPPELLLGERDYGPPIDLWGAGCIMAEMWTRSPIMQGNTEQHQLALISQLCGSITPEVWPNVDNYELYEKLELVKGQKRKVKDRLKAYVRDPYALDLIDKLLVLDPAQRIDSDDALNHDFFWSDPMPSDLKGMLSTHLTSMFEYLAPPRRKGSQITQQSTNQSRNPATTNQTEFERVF

O=C1CC[C@H](N2C(=O)c3ccc(N4CCN(CC=CCN5CCC6(CC5)CC(N5CCN(c7ccc(Nc8ncnc9c8ncn9C8CC(NC(=O)Cc9ccccc9)C8)cc7)CC5)C6)CC4)cc3C2=O)C(=O)N1 (stereo partly drawn) [Compound 479, N-((1s,3s)-3-(6-((4-(4-(7-(4-(4-(2-(2,6-dioxopiperidin-3-yl)-1,3-dioxoisoindolin-5-yl)piperazin-1-yl)but-2-en-1-yl)-7-azaspiro[3.5]nonan-2-yl)piperazin-1-yl)phenyl)amino)-9H-purin-9-yl)cyclobutyl)-2-phenylacetamide]
Enzyme degradation CDK2 (% remaining) @ 0.1 μM (CDK2): 50%
Enzyme degradation CDK2 (% remaining) @ 1 μM (CDK2): 60%
Enzyme degradation CDK2 (% remaining) @ 10 μM (CDK2): 60%
Enzyme degradation CDK9 (% remaining) @ 0.1 μM (CDK9): 30%
Enzyme degradation CDK9 (% remaining) @ 1 μM (CDK9): 20%
Enzyme degradation CDK9 (% remaining) @ 10 μM (CDK9): 20%

Cc1cccc(C(=O)N[C@H]2C[C@@H](n3cnc4c(NC5CCN(CCC6CCN(C(=O)COc7ccc8c(c7)C(=O)N(C7CCC(=O)NC7=O)C8=O)CC6)CC5)ncnc43)C2)n1 (stereo partly drawn) [Compound 31, N-((1s,3s)-3-(6-((1-(2-(1-(2-((2-(2,6-dioxopiperidin-3-yl)-1,3-dioxoisoindolin-5-yl)oxy)acetyl)piperidin-4-yl)ethyl)piperidin-4-yl)amino)-9H-purin-9-yl)cyclobutyl)-6-methylpicolinamide]
Enzyme degradation CDK2 (% remaining) @ 0.1 μM (CDK2): 70%
Enzyme degradation CDK2 (% remaining) @ 1 μM (CDK2): 40%
Enzyme degradation CDK2 (% remaining) @ 10 μM (CDK2): 30%
Enzyme degradation CDK9 (% remaining) @ 0.1 μM (CDK9): 10%
Enzyme degradation CDK9 (% remaining) @ 1 μM (CDK9): 0%
Enzyme degradation CDK9 (% remaining) @ 10 μM (CDK9): 0%

Cc1cccc(C(=O)N[C@H]2C[C@@H](n3cnc4c(NCc5cccc(OCCCN6CCN(C(=O)CNc7ccc8c(c7)C(=O)N([C@H]7CCC(=O)NC7=O)C8=O)CC6)c5)ncnc43)C2)n1 [Compound 102, N-((1s,3s)-3-(6-((3-(3-(4-((2-(2,6-dioxopiperidin-3-yl)-1,3-dioxoisoindolin-5-yl)glycyl)piperazin-1-yl)propoxy)benzyl)amino)-9H-purin-9-yl)cyclobutyl)-6-methylpicolinamide]
Enzyme degradation CDK2 (% remaining) @ 0.1 μM (CDK2): 100%
Enzyme degradation CDK2 (% remaining) @ 1 μM (CDK2): 70%
Enzyme degradation CDK2 (% remaining) @ 10 μM (CDK2): 70%
Enzyme degradation CDK9 (% remaining) @ 0.1 μM (CDK9): 90%
Enzyme degradation CDK9 (% remaining) @ 1 μM (CDK9): 20%
Enzyme degradation CDK9 (% remaining) @ 10 μM (CDK9): 10%

O=C1CC[C@H](N2C(=O)c3cc(F)c(N4CCC(C(=O)N5CCC6(CC5)CC(N5CCN(c7ccc(Nc8ncnc9c8ncn9C8CC(NC(=O)c9c(Cl)cccc9Cl)C8)cc7)CC5)C6)CC4)cc3C2=O)C(=O)N1 (stereo partly drawn) [Compound 464, 2,6-dichloro-N-((1s,3s)-3-(6-((4-(4-(7-(1-(2-(2,6-dioxopiperidin-3-yl)-6-fluoro-1,3-dioxoisoindolin-5-yl)piperidin-4-carbonyl)-7-azaspiro[3.5]nonan-2-yl)piperazin-1-yl)phenyl)amino)-9H-purin-9-yl)cyclobutyl)benzamide]
Enzyme degradation CDK2 (% remaining) @ 0.1 μM (CDK2): 40%
Enzyme degradation CDK2 (% remaining) @ 1 μM (CDK2): 30%
Enzyme degradation CDK2 (% remaining) @ 10 μM (CDK2): 30%
Enzyme degradation CDK9 (% remaining) @ 0.1 μM (CDK9): 0/0/0%
Enzyme degradation CDK9 (% remaining) @ 1 μM (CDK9): 0/0/0%
Enzyme degradation CDK9 (% remaining) @ 10 μM (CDK9): 0/0/0%

COc1ccc(C(=O)N2CC(N3CCC4(CC3)CC(N3CCN(c5ccc(Nc6ncnc7c6ncn7[C@H]6C[C@@H](NC(=O)Cc7ccccc7)C6)cc5)CC3)C4)C2)cc1N1CCC(=O)NC1=O [Compound 272, N-((1s,3s)-3-(6-((4-(4-(7-(1-(3-(2,4-dioxotetrahydropyrimidin-1(2H)-yl)-4-methoxybenzoyl)azetidin-3-yl)-7-azaspiro[3.5]nonan-2-yl)piperazin-1-yl)phenyl)amino)-9H-purin-9-yl)cyclobutyl)-2-phenylacetamide]
Enzyme degradation CDK2 (% remaining) @ 0.1 μM (CDK2): 40/40/40%
Enzyme degradation CDK2 (% remaining) @ 1 μM (CDK2): 40/40/40%
Enzyme degradation CDK2 (% remaining) @ 10 μM (CDK2): 40/40/40%
Enzyme degradation CDK9 (% remaining) @ 0.1 μM (CDK9): 30%
Enzyme degradation CDK9 (% remaining) @ 1 μM (CDK9): 20%
Enzyme degradation CDK9 (% remaining) @ 10 μM (CDK9): 20%

O=C1CCC(N2C(=O)c3cc(F)c(N4CCC(C(=O)N5CCC(CCN6CCN(c7ccc(Nc8ncnc9c8ncn9[C@H]8C[C@@H](NC(=O)c9c(Cl)cccc9Cl)C8)cc7)CC6)CC5)CC4)cc3C2=O)C(=O)N1 (stereo partly drawn) [Compound 463, 2,6-dichloro-N-((1s,3s)-3-(6-((4-(4-(2-(1-(1-(2-(2,6-dioxopiperidin-3-yl)-6-fluoro-1,3-dioxoisoindolin-5-yl)piperidin-4-carbonyl)piperidin-4-yl)ethyl)piperazin-1-yl)phenyl)amino)-9H-purin-9-yl)cyclobutyl)benzamide]
Enzyme degradation CDK2 (% remaining) @ 0.1 μM (CDK2): 30/30/30%
Enzyme degradation CDK2 (% remaining) @ 1 μM (CDK2): 30/30/30%
Enzyme degradation CDK2 (% remaining) @ 10 μM (CDK2): 30/30/30%
Enzyme degradation CDK9 (% remaining) @ 0.1 μM (CDK9): 0/0/0%
Enzyme degradation CDK9 (% remaining) @ 1 μM (CDK9): 0/0/0%
Enzyme degradation CDK9 (% remaining) @ 10 μM (CDK9): 0/0/0%

O=C1CC[C@H](N2C(=O)c3ccc(N4CCN(CCCC5CCN(c6ccc(Nc7ncnc8c7ncn8C7CC(NC(=O)Cc8ccccc8)C7)cc6)CC5)CC4)cc3C2=O)C(=O)N1 (stereo partly drawn) [Compound 347, N-((1s,3s)-3-(6-((4-(4-(3-(4-(2-(2,6-dioxopiperidin-3-yl)-1,3-dioxoisoindolin-5-yl)piperazin-1-yl)propyl)piperidin-1-yl)phenyl)amino)-9H-purin-9-yl)cyclobutyl)-2-phenylacetamide]
Enzyme degradation CDK2 (% remaining) @ 0.1 μM (CDK2): 10%
Enzyme degradation CDK2 (% remaining) @ 1 μM (CDK2): 0%
Enzyme degradation CDK2 (% remaining) @ 10 μM (CDK2): 0%
Enzyme degradation CDK9 (% remaining) @ 0.1 μM (CDK9): 30%
Enzyme degradation CDK9 (% remaining) @ 1 μM (CDK9): 0%
Enzyme degradation CDK9 (% remaining) @ 10 μM (CDK9): 0%

O=C1CC[C@@H](c2cccc(OCC(=O)N3CC(CN4CCC5(CC4)CC(N4CCN(c6ccc(Nc7ncnc8c7ncn8[C@H]7C[C@@H](NC(=O)Cc8ccccc8)C7)cc6)CC4)C5)C3)c2)C(=O)N1 [Compound 276, N-((1s,3s)-3-(6-((4-(4-(7-((1-(2-(3-(2,6-dioxopiperidin-3-yl)phenoxy)acetyl)azetidin-3-yl)methyl)-7-azaspiro[3.5]nonan-2-yl)piperazin-1-yl)phenyl)amino)-9H-purin-9-yl)cyclobutyl)-2-phenylacetamide]
Enzyme degradation CDK2 (% remaining) @ 0.1 μM (CDK2): 30%
Enzyme degradation CDK2 (% remaining) @ 1 μM (CDK2): 20%
Enzyme degradation CDK2 (% remaining) @ 10 μM (CDK2): 20%
Enzyme degradation CDK9 (% remaining) @ 0.1 μM (CDK9): 10%
Enzyme degradation CDK9 (% remaining) @ 1 μM (CDK9): 0%
Enzyme degradation CDK9 (% remaining) @ 10 μM (CDK9): 0%

O=C1CC[C@H](N2C(=O)c3cccc(NCC(=O)N4CCC(CN5CCN(c6ccc(Nc7ncnc8c7ncn8C7CC(NC(=O)c8cccc(Cl)n8)C7)cc6)CC5)CC4)c3C2=O)C(=O)N1 (stereo partly drawn) [Compound 419, 6-chloro-N-((1s,3s)-3-(6-((4-(4-((1-((2-(2,6-dioxopiperidin-3-yl)-1,3-dioxoisoindolin-4-yl)glycyl)piperidin-4-yl)methyl)piperazin-1-yl)phenyl)amino)-9H-purin-9-yl)cyclobutyl)picolinamide]
Enzyme degradation CDK2 (% remaining) @ 0.1 μM (CDK2): 10/10/10%
Enzyme degradation CDK2 (% remaining) @ 1 μM (CDK2): 10/10/10%
Enzyme degradation CDK2 (% remaining) @ 10 μM (CDK2): 10/10/10%
Enzyme degradation CDK9 (% remaining) @ 0.1 μM (CDK9): 0/0/0%
Enzyme degradation CDK9 (% remaining) @ 1 μM (CDK9): 0/0/0%
Enzyme degradation CDK9 (% remaining) @ 10 μM (CDK9): 0/0/0%

O=C1CC[C@H](N2C(=O)C=C(N3CCC(C(=O)N4CCC(CN5CCN(c6ccc(Nc7ncnc8c7ncn8[C@H]7C[C@@H](NC(=O)Cc8ccccc8)C7)cc6)CC5)CC4)CC3)C2=O)C(=O)N1 [Compound 189, N-((1s,3s)-3-(6-((4-(4-((1-(1-(1-(2,6-dioxopiperidin-3-yl)-2,5-dioxo-2,5-dihydro-1H-pyrrol-3-yl)piperidin-4-carbonyl)piperidin-4-yl)methyl)piperazin-1-yl)phenyl)amino)-9H-purin-9-yl)cyclobutyl)-2-phenylacetamide]
Enzyme degradation CDK2 (% remaining) @ 0.1 μM (CDK2): 30%
Enzyme degradation CDK2 (% remaining) @ 1 μM (CDK2): 20%
Enzyme degradation CDK2 (% remaining) @ 10 μM (CDK2): 40%
Enzyme degradation CDK9 (% remaining) @ 0.1 μM (CDK9): 0/0/0%
Enzyme degradation CDK9 (% remaining) @ 1 μM (CDK9): 0/0/0%
Enzyme degradation CDK9 (% remaining) @ 10 μM (CDK9): 0/0/0%

O=C1CC[C@H](N2C(=O)c3ccc(N4CC(C(=O)N5CCC(CN6CCN(c7ccc(Nc8ncnc9c8ncn9C8CC(NC(=O)c9cccc(F)n9)C8)cc7)CC6)CC5)C4)cc3C2=O)C(=O)N1 (stereo partly drawn) [Compound 466, N-((1s,3s)-3-(6-((4-(4-((1-(1-(2-(2,6-dioxopiperidin-3-yl)-1,3-dioxoisoindolin-5-yl)azetidin-3-carbonyl)piperidin-4-yl)methyl)piperazin-1-yl)phenyl)amino)-9H-purin-9-yl)cyclobutyl)-6-fluoropicolinamide]
Enzyme degradation CDK2 (% remaining) @ 0.1 μM (CDK2): 30%
Enzyme degradation CDK2 (% remaining) @ 1 μM (CDK2): 20%
Enzyme degradation CDK2 (% remaining) @ 10 μM (CDK2): 20%
Enzyme degradation CDK9 (% remaining) @ 0.1 μM (CDK9): 0/0/0%
Enzyme degradation CDK9 (% remaining) @ 1 μM (CDK9): 0/0/0%
Enzyme degradation CDK9 (% remaining) @ 10 μM (CDK9): 0/0/0%
